This note sets out measurements from ChEMBL document CHEMBL3351857, “Synthesis and biological evaluation of 2,3'-diindolylmethanes as agonists of aryl hydrocarbon receptor” (Bioorg Med Chem Lett, 2014).

For data set [1], the target named is T1, Aryl hydrocarbon receptor (AhR) (Homo sapiens, UniProt P35869).
T1 sequence (P35869 whole entry): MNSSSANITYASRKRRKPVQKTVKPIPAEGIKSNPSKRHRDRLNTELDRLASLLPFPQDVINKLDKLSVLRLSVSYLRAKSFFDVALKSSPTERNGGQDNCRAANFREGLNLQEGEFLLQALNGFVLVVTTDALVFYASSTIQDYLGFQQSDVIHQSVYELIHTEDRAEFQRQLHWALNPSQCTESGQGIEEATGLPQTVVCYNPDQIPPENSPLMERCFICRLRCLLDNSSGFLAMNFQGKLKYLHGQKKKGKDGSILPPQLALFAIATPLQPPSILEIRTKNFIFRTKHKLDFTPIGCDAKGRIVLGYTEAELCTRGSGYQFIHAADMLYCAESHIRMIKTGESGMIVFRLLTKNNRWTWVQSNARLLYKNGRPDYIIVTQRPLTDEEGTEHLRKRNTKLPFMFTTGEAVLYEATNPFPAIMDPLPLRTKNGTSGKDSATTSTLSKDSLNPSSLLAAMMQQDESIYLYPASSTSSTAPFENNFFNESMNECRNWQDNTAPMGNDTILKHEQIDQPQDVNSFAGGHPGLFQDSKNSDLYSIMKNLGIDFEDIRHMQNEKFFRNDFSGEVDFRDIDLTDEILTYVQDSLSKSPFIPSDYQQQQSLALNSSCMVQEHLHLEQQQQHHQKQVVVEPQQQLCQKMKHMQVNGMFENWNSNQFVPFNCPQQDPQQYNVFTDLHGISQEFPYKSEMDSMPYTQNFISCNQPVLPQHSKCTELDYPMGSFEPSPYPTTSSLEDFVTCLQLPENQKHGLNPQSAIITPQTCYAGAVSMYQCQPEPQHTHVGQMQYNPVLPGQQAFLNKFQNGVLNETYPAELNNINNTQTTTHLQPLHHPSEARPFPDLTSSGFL
The data set can be described thus: Activation of AhR in human HepG2 cells assessed as fluorescence after 24 hrs incubation at 10 nM by EROD assay relative to control. In kind it is cell-based. The conditions noted are these: read-out: FC.

The species named for a further data set is Homo sapiens. The data set can be described thus: Half life in human. In kind it is ADME, organism-based. The conditions noted are these: in vivo.
Data set [2] deals with T2, Aryl hydrocarbon receptor (Homo sapiens, UniProt P35869).
T2 sequence (P35869 whole entry): T1 sequence (P35869 whole entry)
The data set can be described thus: Activation of AhR in human HepG2 cells assessed as fluorescence after 24 hrs incubation by EROD assay. In kind it is cell-based.

The EC50 is the concentration at which the effect is half-maximal.

For the compound `O=Cc1c(Cc2c[nH]c3ccc(Cl)cc23)[nH]c2ccccc12`, the fold induction at 24 h, 0.01 µM in data set [1] was 5.

`Clc1cc2c(cc1Cl)Oc1cc(Cl)c(Cl)cc1O2` [2,3,7,8-TETRACHLORODIBENZO-P-DIOXIN]: the t1/2 in the data set filed under Homo sapiens was found to be 7 yr.

With `Clc1ccc2[nH]cc(Cc3cc4ccccc4[nH]3)c2c1`, the EC50 in data set [2] is more than 6.7 µM.

Consider `Cn1cc(Cc2[nH]c3ccccc3c2C=O)c2ccccc21`, for which the fold induction at 24 h, 0.01 µM in data set [1] stood at 6.
